Measured values as given in article PMC12270681 (The Journal of Biological Chemistry, 2025).
Values joined by “and” are separate entries in the source; they are usually repeats but may differ in a detail not shown here. Equal values may be shown once.

Assays:
Cb-cParM [1] = molecular target: T1, Cb-cParM (Clostridium botulinum, UniProt A0A9Y2YAC8); details: polymerised with 3 mM GTP, 30 min, class 1; Mg2+; pH 7.5; 25 °C; nucleotide hydrolysed to GDP in the filament
T1 construct: gene EXN02_10840

Cb-cParM [2] = molecular target: T1, Cb-cParM; details: class 2 (30 min) and 1 min with 3 mM GTP; Mg2+; pH 7.5; 25 °C; low resolution, nucleotide likely GTP or GDP-Pi
Dh-cParM1 [3] = molecular target: T2, Dh-cParM1 (Desulfitobacterium hafniense, UniProt Q24VP4); test: polymerisation by sedimentation, EM; type: binding; design: gene DSY2109; synthetic gene, N- or C-side 8xHis tag with HRV 3C site, tag cut; E. coli BL21(DE3); polymerises into helical filaments; details: 5 mM nucleotide (sedimentation); pH 7.5, Mg2+, 24 °C
T2 sequence (Q24VP4 1-369): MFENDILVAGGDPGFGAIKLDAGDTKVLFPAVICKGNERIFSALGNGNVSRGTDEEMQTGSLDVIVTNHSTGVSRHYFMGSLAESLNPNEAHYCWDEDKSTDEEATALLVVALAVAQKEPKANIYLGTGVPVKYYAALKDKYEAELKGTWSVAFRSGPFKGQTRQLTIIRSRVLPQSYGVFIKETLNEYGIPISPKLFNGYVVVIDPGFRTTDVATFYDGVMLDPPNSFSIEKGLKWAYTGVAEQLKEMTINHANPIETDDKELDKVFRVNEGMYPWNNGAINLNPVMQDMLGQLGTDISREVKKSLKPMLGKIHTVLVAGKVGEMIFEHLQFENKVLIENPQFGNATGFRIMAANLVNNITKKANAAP

Dh-cParM1 [4] = molecular target: T2, Dh-cParM1; test: cryo-EM structure of filament ([…] A); type: binding; design: gene DSY2109; synthetic gene, N- or C-side 8xHis tag with HRV 3C site, tag cut; E. coli BL21(DE3); polymerises into helical filaments; details: polymerised with 5 mM ATP; 40 mM HEPES pH 7.5, 400 mM KCl, 1 mM MgCl2; nucleotide state not unambiguous, ADP fits better
Cb-cParM [5] = molecular target: T1, Cb-cParM; details: polymerised with 3 mM ATP, 30 min; Mg2+; pH 7.5; 25 °C; nucleotide hydrolysed to ADP in the filament
Dh-cParM1 [6] = molecular target: T2, Dh-cParM1; design: gene DSY2109; details: 5 mM nucleotide (sedimentation); pH 7.5, Mg2+, 24 °C
[7] = molecular target: Dh-cParM1, chromosome-encoded ParM of the Desulfitobacterium hafniense Y51 Dh-cParMR-1 cassette (Desulfitobacterium hafniense Y51); test: co-sedimentation

T1 sequence (A0A9Y2YAC8 1-285): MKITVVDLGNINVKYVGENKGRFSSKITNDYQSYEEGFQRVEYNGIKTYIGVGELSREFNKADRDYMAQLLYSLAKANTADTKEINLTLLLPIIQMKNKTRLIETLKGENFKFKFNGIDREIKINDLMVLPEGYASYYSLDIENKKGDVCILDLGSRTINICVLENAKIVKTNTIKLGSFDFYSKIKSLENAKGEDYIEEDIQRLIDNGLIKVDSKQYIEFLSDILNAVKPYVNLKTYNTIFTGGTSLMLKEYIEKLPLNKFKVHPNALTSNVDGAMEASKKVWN

## Nc1nc2c(ncn2[C@@H]2O[C@H](COP(=O)(O)OP(=O)(O)O)[C@@H](O)[C@H]2O)c(=O)[nH]1 [GDP]
Cb-cParM [1]
  cryo-EM structure of filament (3.5 A): indicating that the bound nucleotides had been hydrolyzed to ADP and GDP, respectively

## Nc1nc2c(ncn2[C@@H]2O[C@H](COP(=O)(O)OP(=O)(O)OP(=O)(O)O)[C@@H](O)[C@H]2O)c(=O)[nH]1 [GTP]
Cb-cParM [2]
  cryo-EM structure of filament (6.5 A and 8.6 A); Pi release also measured: suggesting that they were in the state before the phosphate release
Dh-cParM1 [3]
  polymerisation by sedimentation, EM: Filaments were induced by the addition of ATP, GTP, and non-hydrolysable nucleotides

## Nc1ncnc2c1ncn2[C@@H]1O[C@H](COP(=O)(O)OP(=O)(O)O)[C@@H](O)[C@H]1O [ADP]
Dh-cParM1 [4]
  cryo-EM structure of filament (4.0 A): ADP appears to fit better into the cryoEM density map than ATP
Cb-cParM [5]
  cryo-EM structure of filament (3.9 A): indicating that the bound nucleotides had been hydrolyzed to ADP and GDP, respectively

## Nc1ncnc2c1ncn2[C@@H]1O[C@H](COP(=O)(O)OP(=O)(O)OP(=O)(O)O)[C@@H](O)[C@H]1O [ATP]
Dh-cParM1 [6]
  polymerisation by light scattering, sedimentation, EM: Dh-cParM1 polymerization induced by ATP was followed by light scattering

## Dh-cParM1, chromosome-encoded ParM of the Desulfitobacterium hafniense Y51 Dh-cParMR-1 cassette (natural protein)
[7]
  residual concentration in the supernatants (compared with a critical concentration): 4 µM and 5 µM
